Reference: patent US20070093673A1, “Boron-containing compounds, uses and preparation thereof” (priority 2005, published 2007)

Legend:
[1] = system: Pain and/or Inflammation; experiment: Tests on various subjects: cream applied to the inflamed skin area for pain and/or inflammation; type: in vivo, human; design: key to Pain Condition After Last Application: CD: complete disappearance of pain; RP: residual pain (i.e.: equivalent to mild pain intensity); key to Pain Intensity After Application: No pain: 0; Mild pain: +; Moderate pain: ++; Severe pain: +++ (i.e.: interference with sleep and/or day's activities)
Experimental: Compound 1, and more particularly Composition 1, was tested on several subjects so as to verify its activity as anti-inflammatory agent and/or analgesic. As it can be seen from Table 1, test subjects having various inflammations or pain have been treated with Composition 1. In each case, a small amount of Composition 1, in the form of a cream, was applied to inflammated skin area by means of a short gentle rub.
All data were provided under testimony of all volunteers.
M: male • a) Pain intensity rating: • No pain: 0 • Mild pain: + • Moderate pain: ++ • Severe pain: +++ (i.e.: interference with sleep and/or day's activities). • b) Pain condition after the last application of Compound 1. • CD: complete disappearance of pain. • RP: residual pain (i.e.: equivalent to mild pain intensity).

[2] = solubility in water of Compound 1; type: physicochemical
Source text: The mass spectroscopy analysis (electrospray/scanning) using a Micromass quattra ll triple quadrupole mass spectrometer with a GC and HPLC interface, confirmed the previously illustrated formula for Compound 1. Analysis of Compound 1 was done by mass spectroscopy, positive mode, preparation of samples in 2% acetonitrile-98% methanol. […] The product observed was the following: B3C3H11O9 (223.5 g per mole). […] The purity of the obtained product was>98 % (confirmed by 500 MHz ^1H NMR analysis) and the solubility in water was at maximum 7% w/w, yielding a clear colorless solution.
An analysis of Compound 1, prepared by using metaboric acid and glycerol, was conducted under the same condition as for Compound 1 with boric acid and glycerol. […] The product observed was the following: B3C3H11O9 (223.5 g per mole). […] When compared to Compound 1 prepared from boric acid and glycerol, the purity and solubility of the obtained product were similar i.e. a purity of ≈98% with solubility in water at maximum of 7% w/w, yielding a colorless solution.

[3] = all four subjects with chronic diseases, after application

CC(=O)Oc1ccccc1C(=O)O [Aspirin®, acetylsalicylic acid, reference compound]
gastric adverse effect that prompted discontinuation ([1]; medications taken in the past by the volunteers, testimony): severe gastric burning sensation

OB(O)OCC(COB(O)O)OB(O)O [Compound 1]
subjects with total disappearance of pain ([1]; 30 minutes after application of the cream containing Compound 1): Four subjects out of six | complete loss of stiffness [1, 3]: within four four hours | reduced sensation of stiffness [1, 3]: within two hours | time to complete relief of the pain after the application ([1]; four subjects with chronic lower back pain, fibromyalgia or arthritis): approximately 30 minutes | pain after last application, all subjects ([1]; including three out of six who required a maximum of three applications): complete disappearance of pain for all subjects | time to relapse of pain ([1]; one out of four subjects with chronic disease, who required three applications): approximately 12 hours | pain intensity, all volunteers ([1]; six volunteers, topical cream): reduced pain intensity for all volunteers | loss of swelling at joints and of tenderness sensation ([1]; subjects with fibromyalgia and arthritis): approximately the same time-frames as reported earlier for stiffness | time to complete disappearance of pain ([1]; two subjects with an injury to a leg): within three days | effect compared with medications taken in the past for the same chronic afflictions ([1]; versus acetaminophen/Tylenol, acetaminophen-codeine/Empracet or acetylsalicylic acid/Aspirin, testimony of volunteers): higher than medications taken in the past | Pain Condition After Last Application ([1]; volunteer D-123-S, injury, leg, 3 applications): CD | Pain Intensity After Application ([1]; volunteer D-123-S, injury, leg, before application ++, 3 applications, topical cream): + | Time to Pain Relief ([1]; volunteer D-123-S, injury, leg, before application ++, topical cream): 0.5 h | Pain Condition After Last Application ([1]; volunteer D-321-J, fibromyalgia, hands, 1 application): CD* | Pain Intensity After Application ([1]; volunteer D-321-J, fibromyalgia, hands, before application +++, 1 application, topical cream): 0 | Time to Pain Relief ([1]; volunteer D-321-J, fibromyalgia, hands, before application +++, topical cream): 0.5 h | Pain Condition After Last Application ([1]; volunteer D-457-D, fibromyalgia, hands & feet, 1 application): CD* | Pain Intensity After Application ([1]; volunteer D-457-D, fibromyalgia, hands & feet, before application ++, 1 application, topical cream): 0 | Time to Pain Relief ([1]; volunteer D-457-D, fibromyalgia, hands & feet, before application ++, topical cream): 0.5 h | Pain Condition After Last Application ([1]; volunteer D-633-J, lower back pain, musculoskeletal, 1 application): CD* | Time to Pain Relief ([1]; volunteer D-633-J, lower back pain, musculoskeletal, before application ++, topical cream): 0.5 h | Pain Intensity After Application ([1]; volunteer D-633-J, lower back pain, musculoskeletal, lower back, central, before application ++, 1 application, topical cream): 0 | Pain Condition After Last Application ([1]; volunteer D-701, arthritis, wrists, 3 applications): CD | Time to Pain Relief ([1]; volunteer D-701, arthritis, wrists, before application ++, topical cream): 0.5 h | Pain Intensity After Application ([1]; volunteer D-942-L, injury, leg, before application +++, 3 applications, topical cream): ++ | Pain Condition After Last Application ([1]; volunteer D-942-L, injury, leg, 3 applications): CD | Time to Pain Relief ([1]; volunteer D-942-L, injury, leg, before application +++, topical cream): 8.0 h | solubility in water ([2]; Compound 1 prepared from boric acid and glycerol, clear colorless solution): ≤ 7 % w/w | solubility in water ([2]; Compound 1 prepared from metaboric acid and glycerol, colorless solution): ≤ 7 % w/w
